# Laboratory results: patent publication US20240132463A1, “SUBSTITUTED N-(2-(2,6-DIOXOPIPERIDIN-3-YL)-1,3-DIOXOISOINDOLIN-5-YL)ARYLSULFONAMIDE ANALOGS AS MODULATORS OF CEREBLON PROTEIN” (ST. JUDE CHILDREN'S RESEARCH HOSPITAL, INC., priority 2020, published 2024)
# Read-outs that look alike come from different tables or passages of the source.
# Columns and labels:
# cells = settings: Ref. 13; cited from earlier work
# MV4-11 cells [1] = test: MV-4-11 cell viability assay; format: cell-based, human; settings: 72 hours, Cell Titer Glo
# Protocol: (§2) MV-4-11 cell line was purchased from the American Type Culture Collection (ATCC, Manassas, VA). The cells were cultured according to recommendations in IMDM cell culture media (ATCC). Exponentially growing MV-4-11 cells were plated at 1,000 cells per well in Corning 8804BC white 384-well assay plates and incubated overnight at 37° C. in a humidified 5% CO2 incubator. Compounds were transferred to the assay plate from a dose-response plate using a Pintool on a Biomek FXP Laboratory Automation Workstation (Beckman Coulter). Cytotoxicity was determined following 72 hours of incubation using Promega Cell Titer Glo reagent according to the manufacturer's recommendation. Luminescence was measured on an Envision plate reader (Perkin-Elmer).
# (§3) Compounds were screened in human cancer cell lines and each cell line was cultured in the complete medium recommended by the vendor and seeded in Corning 8804BC white 384-well assay plates at density of 1,000, 1,000, 1,000, 1,500 and 7,500 cells per well, for MV4-11, HD-MB03, MB004, MB002 and MHH-CALL4 cells respectively. After overnight incubation at 37° C. in a humidified 5% CO2 incubator, cells were treated with compounds in dose-response format using a Pintool on a Biomek FXP Laboratory Automation Workstation (Beckman Coulter). […] After 72 h incubation, cell proliferation was assessed using Cell Titer-Glo (CTG) luminescent cell viability assay (Promega) according to the manufacturer's instruction. Luminescence signal was measured using an Envision plate reader (Perkin-Elmer).
# Aqueous solubility assay = format: physicochemical; settings: aqueous solubility at pH = 7.4, triplicate
# Protocol: Solubility assays were carried out on a Biomek FX lab automation workstation (Beckman Coulter, Inc., Fullerton, CA) using μSOL Evolution software (pION Inc., Woburn, MA). 10 μL of 10 mM compound stock (in DMSO) was added to 190 μL 1-propanol to make a reference stock plate. 5 μL from this reference stock plate were mixed with 70 μL 1-propanol and 75 μL citrate phosphate-buffered saline (PBS;isotonic) to make the reference plate, and the UV spectrum (250-500 nm) of the reference plate was read. 6 μL of 10 mM test compound stock was added to 594 μL buffer in a 96-well storage plate and mixed. The storage plate was sealed and incubated at RT for 18 h. The suspension was then filtered through a 96-well filter plate (pION Inc., Woburn, MA). 75 μL of filtrate was mixed with 75 μL 1-propanol to make the sample plate, and the UV spectrum of the sample plate was read. Calculations were carried out with μSOL Evolution software based on the area under the curve (AUC) of the UV spectrum of the sample and reference plates. All compounds were tested in triplicate.
# MDCKII-MDR1 cells = test: MDCKII-MDR1 permeability assay; format: in vitro ADME; settings: permeability in MDCK-MDR1 cells
# Protocol: High throughput […]1 permeability was performed in the Transwell® 0.4 μm polycarbonate membrane 96-well system with modified methods (Refs. 38-39). […]1 cells were maintained at 37° C. in a humidified incubator with an atmosphere of 5% CO2. The cells were cultured in 75 cm^2 flasks with Dulbecco's Modified Eagle's Medium (DMEM) containing 10% fetal bovine serum (FBS), 1% non-essential amino acids (NEAA), 100 units/ml of penicillin, and 100 μg/ml of streptomycin. The […]1 cells were seeded onto inserts at a density of 2×10^4 and 1×10^4 cells/insert separately. The medium in the wells was exchanged each other day, and the trans epithelial electrical resistance (TEER) value was measured using an epithelial volt-ohm meter (Millipore, Billerica, Massachusetts). […] For transport experiments, each cultured monolayer on the 96-well plate was washed twice with a transport buffer (HBSS/25 mM HEPES, pH 7.4). The permeability assay was initiated by the addition of each compound solution (10 μmol/L) into inserts (apical side, A) or receivers (basolateral side, B). The MDCKII-MDR1 cell monolayers were incubated for 1 hour at 37° C. Fractions were collected from receivers (if apical to basal permeability) or inserts (if basal to apical permeability), and concentrations were assessed by UPLC/MS (Waters; Milford, MA). All compounds were tested in triplicates. The A→B (or B→A) apparent permeability coefficients (Papp) of each compound were calculated using the equation, Papp=dQ/dt×1/AC0, where dQ/dt equals the flux of a drug across the monolayer, A equals the total insert well surface area, and C0 is the initial concentration of substrate in the donor compartment. The efflux ratio was determined by dividing the Papp in the B-A direction by the Papp in the A-B direction.
# IKZF1 = IKZF1 (Homo sapiens (Human), UniProt Q13422+Q96SW2); test: IKZF1 degradation by immunoblot in MV4-11 cells; format: cell-based; settings: for DC50: read-out: IKZF1 DC50, 24 h treatment
# Protocol: (§1) MV4-11 cells were seeded in 6-well plates (1×10^6 cells per well). After overnight incubation, the cells were treated with indicated concentrations for specific timepoints. […] After blocking the membrane with LI-COR TBS blocking buffer and incubation in primary antibody overnight, the corresponding protein signals were detected using IRDye secondary antibodies and Odyssey Imaging System. Image Studio Lite Ver 5.2 was used for blot quantification. […] IRDye® 800CW Goat anti-Mouse IgG Secondary Antibody and IRDye® 68ORD Goat anti-Rabbit IgG Secondary Antibody were used as secondary antibodies.
# human cancer cell lines = test: Cell proliferation in human cancer cell lines; format: cell-based; settings: data not shown
# 6×His-CRBN-DDB1 protein = 6×His-CRBN-DDB1 protein (Homo sapiens (Human), UniProt Q96SW2); test: CRBN fluorescence polarization assay; format: binding
# 6×His-CRBN-DDB1 protein, sequence (Q96SW2 whole entry): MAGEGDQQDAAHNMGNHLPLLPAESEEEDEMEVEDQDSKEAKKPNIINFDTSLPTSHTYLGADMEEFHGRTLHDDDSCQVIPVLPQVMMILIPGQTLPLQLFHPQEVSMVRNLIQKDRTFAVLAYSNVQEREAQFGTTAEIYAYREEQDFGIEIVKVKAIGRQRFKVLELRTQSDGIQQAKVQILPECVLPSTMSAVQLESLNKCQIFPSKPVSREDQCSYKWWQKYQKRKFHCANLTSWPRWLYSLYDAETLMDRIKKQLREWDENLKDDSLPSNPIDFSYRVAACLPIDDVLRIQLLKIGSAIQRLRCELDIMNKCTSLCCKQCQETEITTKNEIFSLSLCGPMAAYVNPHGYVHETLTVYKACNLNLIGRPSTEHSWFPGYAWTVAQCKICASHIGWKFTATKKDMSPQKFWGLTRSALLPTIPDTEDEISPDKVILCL
# 6×His-CRBN-DDB1 protein, sequence (Q16531 whole entry partner): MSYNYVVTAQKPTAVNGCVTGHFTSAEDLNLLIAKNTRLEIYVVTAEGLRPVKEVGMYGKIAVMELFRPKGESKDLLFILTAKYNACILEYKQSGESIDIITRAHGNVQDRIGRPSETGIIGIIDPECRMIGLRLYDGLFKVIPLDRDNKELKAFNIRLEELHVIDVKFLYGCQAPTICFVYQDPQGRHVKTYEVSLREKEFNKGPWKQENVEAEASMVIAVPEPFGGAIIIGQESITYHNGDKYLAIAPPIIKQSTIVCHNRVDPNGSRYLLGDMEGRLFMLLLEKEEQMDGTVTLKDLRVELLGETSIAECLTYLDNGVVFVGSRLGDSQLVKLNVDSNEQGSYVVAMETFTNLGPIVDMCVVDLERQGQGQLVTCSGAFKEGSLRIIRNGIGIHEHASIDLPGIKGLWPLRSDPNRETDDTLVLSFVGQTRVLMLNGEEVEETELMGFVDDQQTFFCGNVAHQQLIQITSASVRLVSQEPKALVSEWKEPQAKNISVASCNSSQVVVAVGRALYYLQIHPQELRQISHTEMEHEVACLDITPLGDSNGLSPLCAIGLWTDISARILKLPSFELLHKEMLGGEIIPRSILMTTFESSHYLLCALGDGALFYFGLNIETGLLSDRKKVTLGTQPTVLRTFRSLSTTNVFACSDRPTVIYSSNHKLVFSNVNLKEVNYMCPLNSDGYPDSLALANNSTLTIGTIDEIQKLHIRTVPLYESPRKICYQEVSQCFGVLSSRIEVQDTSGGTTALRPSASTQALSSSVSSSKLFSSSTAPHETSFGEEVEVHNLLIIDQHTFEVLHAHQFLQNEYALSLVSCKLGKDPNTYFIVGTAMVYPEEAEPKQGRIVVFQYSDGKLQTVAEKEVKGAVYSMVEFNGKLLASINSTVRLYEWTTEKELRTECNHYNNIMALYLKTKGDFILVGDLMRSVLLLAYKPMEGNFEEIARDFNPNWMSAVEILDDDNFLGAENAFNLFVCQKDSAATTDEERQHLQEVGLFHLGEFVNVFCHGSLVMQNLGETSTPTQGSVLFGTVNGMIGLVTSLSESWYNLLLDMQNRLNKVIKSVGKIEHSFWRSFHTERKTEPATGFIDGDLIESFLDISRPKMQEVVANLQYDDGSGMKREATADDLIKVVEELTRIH
# Protocol: 6×His-CRBN-DDB1 protein (200 nM) and Cy5-O-Len probe (30 nM) were combined in 20 mM HEPES pH 7, 150 mM NaCl, 0.005% Tween-20 assay buffer. […] The plates were incubated in the dark for 1 hour at room temperature and then read on an Envision plate reader (PerkinElmer, Massachusetts, USA).
# GSPT1 = GSPT1 (Homo sapiens (Human), UniProt P15170+Q96SW2); test: GSPT1 degradation by immunoblot in MV4-11 cells; format: cell-based
# GSPT1, sequence (P15170 whole entry): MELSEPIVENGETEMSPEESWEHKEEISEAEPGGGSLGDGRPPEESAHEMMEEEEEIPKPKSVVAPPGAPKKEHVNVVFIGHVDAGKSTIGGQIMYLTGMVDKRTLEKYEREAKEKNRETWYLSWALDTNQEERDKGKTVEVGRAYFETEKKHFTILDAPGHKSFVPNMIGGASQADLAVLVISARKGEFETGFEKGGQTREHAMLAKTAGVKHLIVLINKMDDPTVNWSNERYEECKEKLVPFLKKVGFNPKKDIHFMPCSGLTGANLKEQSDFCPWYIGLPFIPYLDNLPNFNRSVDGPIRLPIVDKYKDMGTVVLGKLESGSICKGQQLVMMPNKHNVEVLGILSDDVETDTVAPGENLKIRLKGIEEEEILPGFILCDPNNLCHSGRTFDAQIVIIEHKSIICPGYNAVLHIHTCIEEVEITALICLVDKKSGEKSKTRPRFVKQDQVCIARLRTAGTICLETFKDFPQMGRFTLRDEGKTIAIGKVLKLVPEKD
# GSPT1, sequence (Q96SW2 whole entry): as the sequence (Q96SW2 whole entry) above
# GSPT1, sequence (Q16531 whole entry partner): as the sequence (Q16531 whole entry partner) above
# Protocol: as §1
# GSPT1 HiBiT tag protein = GSPT1 HiBiT tag protein (Homo sapiens (Human), UniProt P15170+Q96SW2); test: hGSPT1 HiBiT assay; format: cell-based; settings: read-out: GSPT1 HiBit EC50; HEK293 hGSPT1 HiBiT cells, 4 hrs incubation
# GSPT1 HiBiT tag protein, sequence (P15170 whole entry): as the sequence (P15170 whole entry) above
# GSPT1 HiBiT tag protein, sequence (Q96SW2 whole entry): as the sequence (Q96SW2 whole entry) above
# GSPT1 HiBiT tag protein, sequence (Q16531 whole entry partner): as the sequence (Q16531 whole entry partner) above
# Protocol: hGSPT1 HiBiT cell line. HEK293_hGSPT1_HiBiT tagged cells were generated using CRISPR-Cas12a technology. Briefly, ˜400,000 HEK293 cells were transiently co-transfecting with precomplexed ribonuclear proteins (RNPs) consisting of […] of crRNA (IDT), 62 pmol of Cas12a protein (IDT), 3 ug of ssODN donor (IDT; AltR™ modifications), 78 pmol of electroporation enhancer (IDT), and 200 ng of pMaxGFP (Lonza). The transfection was performed via nucleofection (Lonza, 4D-Nucleofector™ X-unit) using solution P3 and program CM-130 in a small (20 ul) cuvette according to the manufacturer's recommended protocol. Five days post-nucleofection, cells were single cell sorted for GFP+(transfected) cells by FACs in 96-well plates and clonally selected. Clones were screened and verified for the desired modification via targeted deep sequencing using gene specific primers with partial Illumina adapter overhangs as previously described.^58 In brief, clonal cell pellets were harvested, lysed and used to generate gene specific amplicons with partial Illumina adapters in PCR #1. Amplicons were indexed in PCR #2 and pooled with other targeted amplicons for other loci to create sequence diversity. Additionally, 10% PhiX Sequencing Control V3 (Illumina) was added to the pooled amplicon library prior to running the sample on an Miseq Sequencer System (Illumina) to generate paired 2×250 bp reads. […] Editing construct sequences and screening primers are listed below in Table 4.
# hGSPT1 HiBiT assay. […] After 4 hrs incubation, the level of GSPT1 HiBiT tag protein was evaluated using Nano-Glo® HiBiT Lytic Detection System (Promega) according to the manufacturer's instruction.
# caspase 3/7 = test: Caspase 3/7 activity assay; format: cell-based, human; settings: MV4-11 cells, Caspase-Glo, 4, 8 and 24 hours, 10 and 100 nM
# MV4-11 cells [2] = test: Lenalidomide competition assay; format: cell-based, human; settings: co-treatment with lenalidomide 10 μM, 72 h
# Protocol: as §3
# [3] = tested on: CRBN knockout MV4-11 cells; test: Cell viability in CRBN knockout MV4-11 cells; format: cell-based, human; settings: CRBN knockout vs wild-type MV4-11 cells
# Protocol: as §2
# CRBN-deficient MV4:11 cells were generated using CRISPR-Cas9 technology. […] Five days post nucleofection, cells were single-cell sorted by FACs to enrich for GFP+(transfected) cells, clonally selected, and verified for the desired targeted modification via targeted deep sequencing using gene specific primers with partial Illumina adapter overhangs (hCRBN.F—5′-[sequence]-3′ (SEQID: 6) and hCRBN.R—5′-[sequence]-3′, (SEQID: 7); overhangs not shown) and analyzed using CRIS.py (Ref. 36).
compound,measurement,setting,value
"O=C1CC[C@H](N2Cc3c(OCc4ccc(CN5CCOCC5)cc4)cccc3C2=O)C(=O)N1 [CC-220, (S)-3-(4-((4-(morpholinomethyl)benzyl)oxy)-1-oxoisoindolin-2-yl)piperidine-2,6-dione]",potency in cells relative to lenalidomide,cells,10 fold
"O=C1CCC(N2Cc3cc(CNC(=O)C(F)(F)c4ccc(Cl)cc4)ccc3C2=O)C(=O)N1 (centres unmarked) [CC-90009, 2-(4-chlorophenyl)-N-((2-(2,6-dioxopiperidin-3-yl)-1-oxoisoindolin-5-yl)methyl)-2,2-difluoroacetamide, reference compound]",EC50,MV4-11 cells [1]; Homo sapiens,62 nM
same,Sol.,Aqueous solubility assay,77 µM
same,Papp,MDCKII-MDR1 cells,4.9 ×10⁻⁶ cm/s
same,Dmax at 10 µM,"IKZF1; MV4-11 cells, 4 hours, at 10 μM",55%
same,DC50,IKZF1; MV4-11 cells,10 nM
same,DC50,"IKZF1; MV4-11 cells, listed as CC90009",9.9 nM
"Cc1ccc(NC(=O)NCc2ccc3c(c2)CN(C2CCC(=O)NC2=O)C3=O)cc1Cl (centres unmarked) [CC-885, N-(3-chloro-4-methylphenyl)-N′-[[2-(2,6-dioxo-3-piperidinyl)-2,3-dihydro-1-oxo-1H-isoindol-5-yl]methyl]-urea]",antiproliferative effects in cell lines,human cancer cell lines,displayed antiproliferative effects in all four cell lines
"O=C1CCC(N2C(=O)c3ccc(NS(=O)(=O)c4cccc(OC(F)(F)F)c4)cc3C2=O)C(=O)N1 (centres unmarked) [Compound 2, N-(2-(2,6-dioxopiperidin-3-yl)-1,3-dioxoisoindolin-5-yl)-3-(trifluoromethoxy)benzenesulfonamide]",IC50,"6×His-CRBN-DDB1 protein; CRBN FP IC50, cereblon binding, class symbols",< 1000 nM
same,IC50,"6×His-CRBN-DDB1 protein; CRBN IC50, fluorescence polarization, Cy5-O-Len probe",72 nM
same,IC50,"6×His-CRBN-DDB1 protein; fluorescence polarization, Cy5-O-Len probe, read-out: CRBN IC50",54 nM
same,MV4-11 EC50,MV4-11 cells [1],no activity
same,Sol.,Aqueous solubility assay,64 µM
same,Papp,MDCKII-MDR1 cells,4 ×10⁻⁶ cm/s
same,effect on protein levels of GSPT1 by immunoblotting,GSPT1; MV4-11 cells (FIG. 6),no effects
same,selectivity window GSPT1 over IKZF1 (DC50),"GSPT1; MV4-11 cells, DC50 values at 24 hours",30 fold
same,effect on protein levels of IKZF1 by immunoblotting,IKZF1; MV4-11 cells (FIG. 6),no effects
same,IKZF1 protein abundance,"IKZF1; MV4-11 cells, treatment over 24 hours",dose-dependent decrease
same,DC50,GSPT1 HiBiT tag protein,> 10000 nM
"Cc1c(Cl)cccc1S(=O)(=O)Nc1ccc2c(c1)C(=O)N(C1CCC(=O)NC1=O)C2=O (centres unmarked) [Compound 5, 3-chloro-N-(2-(2,6-dioxopiperidin-3-yl)-1,3-dioxoisoindolin-5-yl)-2-methylbenzenesulfonamide]",Sol.,Aqueous solubility assay,64 µM
same,Papp,MDCKII-MDR1 cells,3.6 ×10⁻⁶ cm/s
same,GSPT1 protein degradation,"GSPT1; MV4-11 cells, 24 hours, at 100 nM",90%
same,IKZF1 degradation at 4 hours,"IKZF1; MV4-11 cells, 4 hours, any concentration tested",did not significantly degrade IKZF1
same,caspase activation,caspase 3/7,only observed at the 24 hour time point
same,antiproliferative effect in presence of lenalidomide,MV4-11 cells [2],abrogating the antiproliferative effects
same,antiproliferative activity in absence of CRBN,[3],abolished
